How the values were obtained:
[1] = target: human cathepsin K (UniProt P43236, Y175D/V274L, species not given); assay: Cathepsin K Assay; type: biochemical; settings: IP from dose response curve; Z-Leu-Arg-AMC substrate, pH 5.5; read-out: hrbCat K (IP (nM))
[2] = target: T1, human cathepsin F (Homo sapiens, UniProt Q9UBX1); assay: Cathepsin F Assay; type: biochemical; settings: IP from dose response curve; Z-Phe-Arg-AMC substrate, pH 5.5; read-out: hCat F (IP (nM))
T1 sequence (Q9UBX1 271-484): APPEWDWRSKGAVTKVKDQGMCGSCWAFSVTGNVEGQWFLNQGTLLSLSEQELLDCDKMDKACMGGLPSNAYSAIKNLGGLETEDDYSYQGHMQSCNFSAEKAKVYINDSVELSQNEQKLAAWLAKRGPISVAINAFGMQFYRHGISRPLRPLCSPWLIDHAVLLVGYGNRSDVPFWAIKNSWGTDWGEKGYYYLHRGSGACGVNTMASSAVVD
Method: Serial dilutions (1/3) from 500 μM down to 0.025 μM of test compounds were prepared in dimethyl sulfoxide (DMSO). Then 0.5 μL of DMSO from each dilution were added to 18.75 μL of assay buffer (MES, 50 mM (pH 5.5); EDTA, 2.5 mM; DTT, 2.5 mM and 10% DMSO) containing human cathepsin F (10 nM) in assay buffer solution. The assay solutions were mixed for 5-10 seconds on a shaker plate and incubated for 15 minutes at room temperature. Z-Phe-Arg-AMC (8 μM) in 6.25 μL of assay buffer was added to the assay solutions. Hydrolysis of the coumarin leaving group (AMC) was followed by spectrofluorometry (Exλ=360 nm; Emλ=460 nm) for 20 minutes. Percent of inhibition were calculated by fitting experimental values to standard mathematical model for dose response curve.

`N#CC1(NC(=O)[C@@H]2CCCC[C@H]2c2nn(-c3ccc(F)cc3)cc2-c2ccc(N3CCS(=O)(=O)CC3)cc2)CC1` [Example 85, (1R,2R)-N-(1-cyanocyclopropyl)-2-(4-(4-(1,1-dioxidothiomorpholino)phen-yl)-1-(4-fluorophenyl)-1H-pyrazol-3-yl)cyclohexanecarboxamide] gave an IC50 [1] of 0.69 nM and an IC50 [2] of 352 nM.
`C[C@@H](C#N)NC(=O)[C@@H]1CC(F)(F)CC[C@H]1c1nn2ccccc2c1-c1ccc(N2CCS(=O)(=O)CC2)cc1` [Example 72, (1R,2R)-N-((S)-1-cyanoethyl)-2-(3-(4-(1,1-dioxidothiomorpholino)phen-yl)pyrazolo[1,5-a]pyridin-2-yl)-5,5-difluorocyclohexanecarbox-amide] showed an IC50 [1] of 2.66 nM and an IC50 [2] of 230 nM.
For `N#CC1CCN(c2ccc(-c3cn(-c4ccc(F)cc4)nc3[C@@H]3CCCC[C@H]3C(=O)NC3(C#N)CC3)cc2)CC1` [Example 1, (1R,2R)—N-(1-Cyanocyclopropyl)-2-(4-(4-(4-cyanopiperidin-1-yl)phenyl)-1-(4-fluorophenyl)-1H-pyrazol-3-yl)cyclohexanecarboxamide], the IC50 [1] was 2.72 nM and the IC50 [2] was 698 nM.
In the case of `N#CC1(NC(=O)[C@@H]2CCCC[C@H]2c2nn(-c3ccc(C(O)(C(F)(F)F)C(F)(F)F)cc3)cc2-c2ccc(N3CCS(=O)(=O)CC3)cc2)CC1` [Example 109, (1R,2R)-N-(1-cyanocyclopropyl)-2-(4-(4-(1,1-dioxidothiomorpholino)phen-yl)-1-(4-(1,1,1,3,3,3-hexafluoro-2-hydroxypropan-2-yl)phenyl)-1H-pyrazol-3-yl)cyclohexanecarboxamide], the IC50 [1] is reported as 2.67 nM and the IC50 [2] is reported as 267 nM.
`N#CC1(NC(=O)[C@@H]2CCCC[C@H]2c2nn(-c3ccc(OC(F)(F)F)cc3)cc2-c2ccc(N3CCS(=O)(=O)CC3)cc2)CC1` [Example 119, (1R,2R)-N-(1-cyanocyclopropyl)-2-(4-(4-(1,1-dioxidothiomorpholino)phen-yl)-1-(4-(trifluoromethoxy)phenyl)-1H-pyrazol-3-yl)cyclohexanecarboxamide] gave an IC50 [1] of 1.8 nM and an IC50 [2] of 562 nM.
`CC1(C)CC[C@@H](c2nn(-c3ccc(F)cc3)cc2-c2ccc(N3CCS(=O)(=O)CC3)cc2)[C@H](C(=O)NC2(C#N)CC2)C1` (single isomer, unassigned) [Example 126, (1R,2R) or (1S,2S)-N-(1-cyanocyclopropyl)-2-(4-(4-(1,1-dioxidothiomorpholino)phen-yl)-1-(4-fluorophenyl)-1H-pyrazol-3-yl)-5,5-dimethylcyclohexanecarbox-amide] showed an IC50 [1] of 116 nM.
Compound `CN=S1(=O)CCN(c2ccc(-c3cn(-c4ncccc4F)nc3[C@@H]3CC[C@H](F)C[C@H]3C(=O)N[C@@H](C)C#N)cc2)CC1` [Example 54, (1R,2R,5S)-N-((S)-1-cyanoethyl)-5-fluoro-2-(1-(3-fluoropyridin-2-yl)-4-(4-(1-(methylimino)-1-oxidothiomorpholino)phenyl)-1H-pyrazol-3-yl)cyclohexanecarboxamide] has an IC50 [1] of 7.89 nM.
Work on `CN=S1(=O)CCN(c2ccc(-c3cn(-c4ncccc4F)nc3[C@@H]3CC(F)(F)CC[C@H]3C(=O)NC3(C#N)CC3)cc2)CC1` [Example 40, (1R,2R)-N-(1-cyanocyclopropyl)-4,4-difluoro-2-(1-(3-fluoropyridin-2-yl)-4-(4-(1-(methylimino)-1-oxidothiomorpholino)phenyl)-1H-pyrazol-3-yl)cyclohexanecarboxamide] yielded an IC50 [1] of 22 nM.
With `CC(C)[C@@H](C#N)NC(=O)[C@@H]1C[C@@H](F)CC[C@H]1c1nn(-c2ncccc2F)cc1-c1ccc(N2CCS(=O)(=O)CC2)cc1` [Example 49, (1R,2R,5S)-N-((S)-1-cyano-2-methylpropyl)-2-(4-(4-(1,1-dioxidothiomorpholino)phen-yl)-1-(3-fluoropyridin-2-yl)-1H-pyrazol-3-yl)-5-fluorocyclohexanecarboxamide] the IC50 [1] was 8.35 nM.
`N#CC1(NC(=O)[C@@H]2CCC(F)(F)C[C@H]2c2nn(-c3ccc(Cl)cn3)cc2-c2ccc(N3CCS(=O)(=O)CC3)cc2)CC1` [Example 150, (1R,2R)-2-(1-(5-chloropyridin-2-yl)-4-(4-(1,1-dioxidothiomorpholino)phen-yl)-1H-pyrazol-3-yl)-N-(1-cyanocyclopropyl)-4,4-difluorocyclohexanecarbox-amide] gave an IC50 [1] of 1.43 nM.
Work on `N#CC1(NC(=O)[C@@H]2CCCC[C@H]2c2nn(-c3ncccn3)cc2-c2ccc(N3CCS(=O)(=O)CC3)cc2)CC1` [Example 160, (1R,2R)-N-(1-cyanocyclopropyl)-2-(4-(4-(1,1-dioxidothiomorpholino)phen-yl)-1-(pyrimidin-2-yl)-1H-pyrazol-3-yl)cyclohexanecarboxamide] yielded an IC50 [1] of 34.7 nM.
In the case of `CC(C#N)NC(=O)[C@@H]1CCC(F)(F)C[C@H]1c1nn(-c2ccc(F)cn2)cc1-c1ccc(N2CCS(=N)(=O)CC2)cc1` (single isomer, unassigned) [Example 22, (1R,2R)-N-((R or S)-1-cyanoethyl)-4,4-difluoro-2-(1-(5-fluoropyridin-2-yl)-4-(4-(1-imino-1-oxidothiomorpholino)phenyl)-1H-pyrazol-3-yl)cyclohexanecarboxamide], the IC50 [1] is reported as 264 nM.
With `N#CC1(NC(=O)[C@@H]2C[C@@H](F)CC[C@H]2c2nn(-c3ncccc3F)cc2-c2ccc(N3CCS(=N)(=O)CC3)cc2)CC1` [Example 56, (1R,2R,5S)-N-(1-cyanocyclopropyl)-5-fluoro-2-(1-(3-fluoropyridin-2-yl)-4-(4-(1-imino-1-oxidothiomorpholino)phenyl)-1H-pyrazol-3-yl)cyclohexanecarboxamide] the IC50 [1] was 5.69 nM.
`CN=S1(=O)CCN(c2ccc(-c3cn(-c4ncccc4F)nc3[C@@H]3CC[C@H](F)C[C@H]3C(=O)NC3(C#N)CC3)cc2)CC1` [Example 53, (1R,2R,5S)-N-(1-cyanocyclopropyl)-5-fluoro-2-(1-(3-fluoropyridin-2-yl)-4-(4-(1-(methylimino)-1-oxidothiomorpholino)phenyl)-1H-pyrazol-3-yl)cyclohexanecarboxamide] showed an IC50 [1] of 6.54 nM.
For `C[C@@H](C#N)NC(=O)[C@@H]1C[C@@H](F)CC[C@H]1c1nn(-c2ncccc2F)cc1-c1ccc(N2CCS(=O)(=O)CC2)cc1` [Example 12, (1R,2R,5S)—N—((S)-1-Cyanoethyl)-2-(4-(4-(1,1-dioxidothiomorpholino)phenyl)-1-(3-fluoropyridin-2-yl)-1H-pyrazol-3-yl)-5-fluorocyclohexanecarboxamide], the IC50 [1] was 6.89 nM.
Compound `N#CC1(NC(=O)[C@@H]2CCC(F)(F)C[C@H]2c2nn(-c3ncccc3F)cc2-c2ccc(N3CCS(=N)(=O)CC3)cc2)CC1` [Example 39, (1R,2R)-N-(1-cyanocyclopropyl)-4,4-difluoro-2-(1-(3-fluoropyridin-2-yl)-4-(4-(1-imino-1-oxidothiomorpholino)phenyl)-1H-pyrazol-3-yl)cyclohexanecarboxamide] has an IC50 [1] of 48.7 nM.
`CC(C)[C@@H](C#N)NC(=O)[C@@H]1C[C@@H](F)CC[C@H]1c1nn(-c2ncccc2F)cc1-c1ccc(N2CCS(=N)(=O)CC2)cc1` [Example 58, (1R,2R,5S)-N-((S)-1-cyano-2-methylpropyl)-5-fluoro-2-(1-(3-fluoropyridin-2-yl)-4-(4-(1-imino-1-oxidothiomorpholino)phenyl)-1H-pyrazol-3-yl)cyclohexanecarboxamide] gave an IC50 [1] of 16 nM.
For `N#CC1(NC(=O)[C@@H]2CCC(F)(F)C[C@H]2c2nn(-c3ccc(F)cn3)cc2-c2ccc(N3CCS(=O)(=O)CC3)cc2)CC1` [Example 151, (1R,2R)-N-(1-cyanocyclopropyl)-2-(4-(4-(1,1-dioxidothiomorpholino)phen-yl)-1-(5-fluoropyridin-2-yl)-1H-pyrazol-3-yl)-4,4-difluorocyclohexanecarbox-amide], the IC50 [1] was 2.44 nM.
`CN=S1(=O)CCN(c2ccc(-c3cn(-c4ccc(F)cn4)nc3[C@@H]3CC(F)(F)CC[C@H]3C(=O)NC(C)C#N)cc2)CC1` (single isomer, unassigned) [Example 24, (1R,2R)-N-((R or S)-1-cyanoethyl)-4,4-difIuoro-2-(1-(5-fluoropyridin-2-yl)-4-(4-(1-(methylimino)-1-oxidothiomorpholino)phenyl)-1H-pyrazol-3-yl)cyclohexanecarboxamide] showed an IC50 [1] of 169 nM.
`CN=S1(=O)CCN(c2ccc(-c3cn(-c4ncccc4F)nc3[C@@H]3CC[C@H](F)C[C@H]3C(=O)N[C@H](C#N)C(C)C)cc2)CC1` [Example 55, (1R,2R,5S)-N-((S)-1-cyano-2-methylpropyl)-5-fluoro-2-(1-(3-fluoropyridin-2-yl)-4-(4-(1-(methylimino)-1-oxidothiomorpholino)phenyl)-1H-pyrazol-3-yl)cyclohexanecarboxamide] gave an IC50 [1] of 14.3 nM.
Compound `N#CC1(NC(=O)[C@@H]2CCC(F)(F)C[C@H]2c2nn(-c3ccc(C(F)(F)F)cn3)cc2-c2ccc(N3CCS(=O)(=O)CC3)cc2)CC1` [Example 149, (1R,2R)-N-(1-cyanocyclopropyl)-2-(4-(4-(1,1-dioxidothiomorpholino)phen-yl)-1-(5-(trifluoromethyl)pyridin-2-yl)-1H-pyrazol-3-yl)-4,4-difluorocyclohexanecarbox-amide] has an IC50 [1] of 2.58 nM.

Source: US9656990B2, “Cathepsin cysteine protease inhibitors” (Merck Sharp & Dohme Corp., priority 2014, dated 2017)
